From patent US20210338694A1, “SOS1 ALLOSTERIC SITE TARGETING” (priority 2020, published 2021)

What follows are molecules tested on Mononuclear bone marrow cells harvested from Kras G12D/+ mice (assay: CellTiter-Glo Luminescent Cell Viability Assay (growth inhibitory assay)). Settings: Mus musculus, 48 h, 40 μM compound, two days of incubation, percentage of cells still alive at the end of the experiment, read-out: 40 μM (% Residual Activity).
Type: cell-based
Experimental: Mononuclear bone marrow cells harvested from Kras G12D/+ mice were tested for proliferation in a CellTiter-Glo® Luminescent Cell Viability Assay by Promega (Madison, Wis.) carried out by following the instructions provided by the manufacturer in the presence of 40 μM of 176 selected test compounds. […] The structures of these active compounds are shown in Table 1, along with the percentage of residual activity after two days of incubation with 40 μM of the compound. The residual activity is the percentage of cells that were still alive at the end of the experiment.

Point of comparison: `C=CCc1ccc(/C=N/NC(=O)c2ccccc2O)cc1O` [Compound 290794], activity at 40 µM 2%. Against it:
- O=C(Nc1ccccc1C(=O)O)c1ccc([N+](=O)[O-])cc1 [Compound 114395] — higher, 16%
- O=C(N/N=C(/C=C/c1ccccc1)c1ccccc1)c1ccccc1O [Compound 121366] — higher, 12%
- O=C(NCc1ccccc1)/C(=C/C=C\c1ccccc1)NC(=O)c1ccccc1 [Compound 127987] — higher, 5%
- COc1ccc(C=C2c3ccccc3-c3ccccc32)cc1 [Compound 262294] — higher, 13%
- Cc1cc(C)c2oc(-c3ccc(C)c(/N=C/C=C/c4ccc(Br)c([N+](=O)[O-])c4)c3)nc2c1 [Compound 312987] — higher, 8%
- O=C(N/N=C/c1ccc(O)c(O)c1)c1ccc(-c2ccccc2)cc1 [Compound 377089] — higher, 6%
- O=C(N/N=C/c1ccc(OCc2ccccc2)cc1)c1cccc(F)c1 [Compound 377247] — higher, 11%
- O=C(/C=C(\O)C(F)(F)/C(O)=C/C(=O)c1ccccc1)c1ccccc1 [Compound 387846] — higher, 9%
- O=C(N/N=C/C=C/c1ccc([N+](=O)[O-])o1)c1ccccc1O [Compound 388883] — lower, 1%
- O=C(NC(=S)NNC(=O)c1ccccc1O)c1ccc(-c2ccccc2)cc1 [Compound 390481] — higher, 10%
- O=C(N/N=C/c1ccc2ccccc2c1)c1ccccc1O [Compound 393689] — higher, 11%
- O=C(N/N=C/c1ccc(O)c(Br)c1)c1cc(Br)ccc1O [Compound 394392] — higher, 3%
- O=[N+]([O-])c1ccc(C=C(c2nc3ccccc3s2)c2nc3ccccc3s2)cc1 [Compound 408776] — higher, 12%
- O=C(NNC(=O)c1ccccc1C(=O)O)c1ccccc1O [Compound 473089] — higher, 13%
- O=C(/C=C/c1ccc(/C=C/C(=O)c2ccc(O)cc2)cc1)c1ccc(O)cc1 [Compound 511128] — lower, 1%
- O=C(C(=Cc1ccccc1[N+](=O)[O-])C(=O)c1ccccc1)c1ccccc1 [Compound 526470] — higher, 15%
- O=C(Nc1cc(Cl)ccc1O)c1ccc(Cl)c(C(=O)c2ccc(Cl)cc2)c1 [Compound 773778] — higher, 8%
- O=C(/C=C/c1ccccc1[N+](=O)[O-])c1ccco1 [Compound 775432] — lower, 0%
- O=C(NC(=S)Nc1ccccc1O)c1ccc(-c2ccccc2)cc1 [Compound 920300] — higher, 12%
- O=[N+]([O-])c1ccccc1/C=C/C=C1c2ccccc2-c2ccccc21 [NSC-70220] — higher, 12 to 15%

What follows are molecules tested on Kras (G12D) transformed pancreatic cancer cells (4039) (assay: Cell growth in tissue culture over a four-day period). Settings: 40 μM, Kras (G12D) cells 4039, FIG. 1.
Type: cell-based
Experimental: Kras (G12D) transformed pancreatic cancer cells (4039) and wild-type Kras expressing pancreatic cancer cells (4037) were each exposed to 40 μM of NSC-70220. Cell growth in the tissue culture was monitored by assays over a four-day period.

`O=[N+]([O-])c1ccccc1/C=C/C=C1c2ccccc2-c2ccccc21` [NSC-70220] was tested, and the “inhibition of cell growth” value was “selectively inhibits”.

These molecules were tested on ERK activation of oncogenic Kras (G12D) pancreatic cancer cells (assay: ERK activation by Western blotting of p-ERK, total ERK). Settings: Western blot, FIGS. 2A and 2B.
Type: cell-based

With `O=[N+]([O-])c1ccccc1/C=C/C=C1c2ccccc2-c2ccccc21` [NSC-70220] the “inhibition of ERK activation” value was “selectively inhibits ERK activation”.

The molecules below were run on oncogenic Kras (G12C) transformed pancreatic MIA-PaCa-2 cells (assay: Cell growth of treated cells). Settings: Kras (G12C) MIA-PaCa-2 cells, FIGS. 3-5.
Type: cell-based
Experimental: FIGS. 3-5 show data from experiments in which oncogenic Kras (G12C) transformed pancreatic MIA-PaCa-2 cells were treated with NSC-70220, and an experiment in which wild-type Kras expressing pancreatic BxPC-3 ductal cells were treated with NSC-70220.

In the case of `O=[N+]([O-])c1ccccc1/C=C/C=C1c2ccccc2-c2ccccc21` [NSC-70220], the inhibition of growth is reported as “selectively inhibits growth”.
